The values that follow come from patent US7402402B2, “P38 MAPK pathway predicts endocrine-resistant growth of human breast cancer and provides a novel diagnostic and treatment target” (Baylor College of Medicine, priority 2001, dated 2008).

In assay [1] the test system is ER-positive MCF-7 human breast cancer cells. The conditions noted are these: literature (Osborne et al., 1995), cited from earlier work.
The test system is the same in assay [2]. As to the kind of experiment: MCF-7 human breast cancer xenografts in athymic nude mice, tumor volume. Format: in vivo. The conditions noted are these: wild type MCF-7 xenografts, treatment from day 17, FIG. 2A; growth eventually resumes (Tam^R). An excerpt: The present inventors have developed an in vivo experimental model of tamoxifen resistance and resistance to estrogen deprivation in which ER-positive MCF-7 human breast cancer cells are inoculated subcutaneously into athymic nude mice [Osborne et al., 1987, Eur J Cancer Clin Oncol. 23(8):1189-1196; Osborne et al., 1991, J Natl Cancer Inst. 83(20):1477-1482]. […] This sequence of events is similar to that which occurs in patients. […] Since certain metabolites of tamoxifen have estrogenic properties, pharmacologic explanations for this tamoxifen-stimulated growth were investigated first.
ER-positive MCF-7 human breast cancer cells were grown as xenografts in athymic nude mice as described previously [Osborne et al., 1987, Eur J Cancer Clin Oncol. 23(8):1189-1196; Osborne et al., 1991, J Natl Cancer Inst. 83(20):1477-1482; Osborne et al., 1995, J Natl Cancer Inst 87:746-750]. Day 0 was the day of transplantation conducted and the day estrogen treatment began. These mice were treated with estrogen withdrawal (−E2) or tamoxifen (Tam) beginning on day 17. Tumor volume was measure every four days.

Assay [3] addresses p38β (Homo sapiens, UniProt Q15759). As to the kind of experiment: In vitro kinase assay of Example 3: p38β-induced phosphorylation of ER. Format: biochemical. The conditions noted are these: ERα and ERβ substrates.
The subject of assay [4] is p38 MAPK. The conditions noted are these: baculovirus-expressed ERα, FIG. 3A.
The test system of assay [5] is p38 MAPK. As to the kind of experiment: In vitro phosphorylation of Xenopus oocyte-expressed AIB1 by p38 MAPK. Format: biochemical. The conditions noted are these: Xenopus oocyte-expressed AIB1, FIG. 4 lane 4.

Chain of p38β (Q15759 whole entry): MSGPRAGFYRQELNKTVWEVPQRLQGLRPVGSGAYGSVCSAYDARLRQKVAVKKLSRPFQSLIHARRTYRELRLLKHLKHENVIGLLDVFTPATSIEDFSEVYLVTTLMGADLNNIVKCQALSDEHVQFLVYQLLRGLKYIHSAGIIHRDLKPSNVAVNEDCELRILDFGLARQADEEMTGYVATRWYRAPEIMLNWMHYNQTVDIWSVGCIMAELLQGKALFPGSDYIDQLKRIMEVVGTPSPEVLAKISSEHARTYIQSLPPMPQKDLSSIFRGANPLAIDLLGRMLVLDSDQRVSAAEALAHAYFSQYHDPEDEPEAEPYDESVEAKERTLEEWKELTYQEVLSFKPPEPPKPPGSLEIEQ

Consider `CC/C(=C(\c1ccccc1)c1ccc(OCCN(C)C)cc1)c1ccccc1` [tamoxifen], for which the “tumor growth in MCF-7 xenograft model” value in assay [1] (tumor growth later resumes despite continued treatment) is “suppresses tumor growth for several months”. In assay [2], the “xenografted tumor growth (tumor volume over time)” value is reported as “suppresses tumor growth for several months”.

Consider `C[C@]12CC[C@@H]3c4ccc(O)cc4C[C@@H](CCCCCCCCC[S+]([O-])CCCC(F)(F)C(F)(F)F)[C@H]3[C@@H]1CC[C@@H]2O` (stereo partly drawn) [ICI 182,780], for which the “growth of −E2^R and Tam^R resistant tumors” value in assay [1] (resistant xenograft tumors) was “can still be inhibited”.

As for `C[S+]([O-])c1ccc(-c2nc(-c3ccncc3)c(-c3ccc(F)cc3)[nH]2)cc1` (stereo not drawn) [SB 203580], the “p38β-induced phosphorylation of ER” value in assay [3] is on record as “can be inhibited”. In assay [4], the “phosphorylation of ERα by p38 MAP kinase in the presence of inhibitor” value is “inhibited”. The “AIB1 phosphorylation by p38 MAPK” value in assay [5] is “inhibits AIBI phosphorylation”.
